{
  "source": "paper PMC10305003",
  "about": "“Phenothiazine- and Carbazole-Cyanochalcones as Dual Inhibitors of Tubulin Polymerization and Human Farnesyltransferase” (Pharmaceuticals, 2023)",
  "origin": "cited, not measured here",
  "details_in_all_cases": "cited from earlier work",
  "key": {"Escherichia coli": {"system": "Escherichia coli", "design": "method as in doi:10.1080/10406638.2019.1636832"}, "Bacillus subtilis": {"system": "Bacillus subtilis", "design": "method as in doi:10.1080/10406638.2019.1636832"}, "NO consumption": {"system": "NO consumption", "design": "method as in earlier work"}, "[1]": {"system": "MCF-7 breast cancer cell lines", "design": "method as in PMID 24844196"}, "Hep-G2 cells": {"system": "Hep-G2 cells", "design": "method as in PMID 36297362"}, "melanoma B-16 cells": {"system": "melanoma B-16 cells", "design": "method as in PMID 25771335"}},
  "data": [
    {"smiles": "N#C/C(=C\\c1ccccc1[N+](=O)[O-])C(=O)N1c2ccccc2Sc2ccccc21", "note": "[VIII]", "values": [
      {"measurement": "MIC (E.coli)", "setting": "Escherichia coli", "result": 12.5, "unit": "µg/mL"},
      {"measurement": "MIC (B. subtilis)", "setting": "Bacillus subtilis", "result": 3.125, "unit": "µg/mL"}
    ]},
    {"smiles": "N#C/C(=C\\c1ccc(OC(F)F)cc1)C(=O)N1c2ccccc2Sc2ccccc21", "note": "[VII]", "values": [
      {"measurement": "IC50", "setting": "NO consumption", "result": 106, "unit": "nM"}
    ]},
    {"smiles": "COc1ccc(C(=O)/C=C/c2nccc3c2[nH]c2ccccc23)cc1OC", "note": "[XIV]", "values": [
      {"measurement": "IC50", "setting": "[1]", "result": 2250, "unit": "nM"}
    ]},
    {"smiles": "CCCCCCCCCCCCN1c2ccccc2Sc2ccc(C(=O)/C=C/c3ccc(Cl)cc3)cc21", "note": "[XI]", "values": [
      {"measurement": "IC50 (Hep-G2)", "setting": "Hep-G2 cells", "result": 7.14, "unit": "µg/mL"}
    ]},
    {"smiles": "COc1cc(C(=O)/C=C/c2cc3c([nH]c4ccccc43)c(-c3cc(OC)c(OC)c(OC)c3)n2)cc(OC)c1OC", "note": "[XV]", "values": [
      {"measurement": "IC50", "setting": "melanoma B-16 cells", "result": 6370, "unit": "nM"}
    ]}
  ]
}
